Results reported in paper PMC10000267, “ALA‐A2 Is a Novel Anticancer Peptide Inspired by Alpha‐Lactalbumin: A Discovery from a Computational Peptide Library, In Silico Anticancer Peptide Screening and In Vitro Experimental Validation” (Global Challenges, 2023).
Residues, ends and D or L forms follow the SMILES beside them.

How the values were obtained:
[1] = system: MDA‐MB‐231 breast cancer cells; assay: In vitro cancer cytotoxicity (MTT assay); assay type: cell-based, human; details: MDA‐MB‐231, peptide 200 µM, 24 h
Description: (§1) All cell lines were obtained from the American Type Culture Collection (ATCC, Manassas, VA, USA). The A549 lung adenocarcinoma (ATCC CCL‐185TM), MDA‐MB‐231 triple‐negative breast adenocarcinoma (ATCC HTB‐26TM), and SH‐SY5Y neuroblastoma (ATCC CRL‐2266TM) cell lines were cultured in Dulbecco's Modified Eagle's Medium (DMEM)‐high glucose (Gibco, Thermo Fisher Scientific, MA, USA). HT29 colon adenocarcinoma (ATCC HTB‐38) cell lines were maintained in DMEM/Nutrient Mixture F‐12 (Gibco). K562 chronic myeloid leukemia (ATCC CRL‐3344) were grown in Roswell Park Memorial Institute Medium 1640 (Gibco). The cells were cultured in medium supplemented with 10% fetal bovine serum (Gibco) and 1× penicillin/streptomycin (Gibco) and incubated in a 5% CO2 incubator with saturated humidity.
(§2) The protocol previously described by Chiangjong et al. and Baindara et al.^[ [5], [29] ^] was modified for use in determining the cytotoxicity of peptides on the various cancer types. Adherent cells were seeded at 1 × 10^4 cells/well into a 96‐well plate 24 h prior to replacing the media containing the peptide of interest. Suspended cells were seeded at 1 × 10^4 cells/well in the media containing the peptide of interest. Five human cell lines, including lung cancer (A549), colon cancer (HT29), breast cancer (MDA‐MB‐231), neuroblastoma (SH‐SY5Y), and leukemia (K562) cells, were treated with the culture media containing the peptides at 200 µM for 24 h. Cell viability was then determined using Cell Proliferation Kit I, MTT (Roche Diagnostics GmbH, Mannheim, Germany): MTT labeling reagent (10 µL) was added to each well and incubated at 37 °C in a 5% CO2 atmosphere for 4 h. After incubation, 100 µL solubilizing solution was added to each well and incubated at 37 °C in 5% CO2 overnight. The absorbance at 570 nm (A 570) was measured for each well. The percentage of cell viability was calculated as: (1) % Cell Viability=[A570 of treated cells − A570 of media/A570 of untreated cells−A570 of media] × 100

[2] = system: K562 leukemia cells; assay: In vitro cancer cytotoxicity (MTT assay); assay type: cell-based, human; details: K562, peptide 200 µM, 24 h
Description: as §1, §2

[3] = system: SH‐SY5Y neuroblastoma cells; assay: In vitro cancer cytotoxicity (MTT assay); assay type: cell-based, human; details: peptide 200 µM, 24 h
Description: as §1, §2

[4] = system: HT29 colon adenocarcinoma cells; assay: In vitro cancer cytotoxicity (MTT assay); assay type: cell-based, human; details: HT29, peptide 200 µM, 24 h
Description: as §1, §2
(§3) To evaluate dose‐dependency, ≈1 × 10^4 cells/well were cultured in media containing ALA‐A2 at 0, 6.25, 12.5, 25, 50, 100, 200, and 400 µM in a 96‐well plate for 24 h. Cell viability was determined by the MTT assay, as above.

[5] = system: A549 lung adenocarcinoma cells; assay: In vitro cancer cytotoxicity (MTT assay); assay type: cell-based, human; details: A549, peptide 200 µM, 24 h
Description: as §1, §2, §3

[6] = system: Human red blood cells; assay: Ex vivo hemolysis assay (RBC lysis assay); assay type: cell-based; details: peptide 200 µM, 1 h; for percent hemolysis: ≈0.8% v/v human RBC suspension in 0.9% normal saline, room temperature, absorbance 415 nm, relative to 1% Triton X‐100, blood of three healthy individuals, mean ± SD
Description: The hemolysis assay was as described previously.^[ [30] ^] After informed consent, peripheral blood (3 mL) was collected from three healthy individuals into heparin tubes (BD Biosciences, NJ, USA). The specimen was centrifuged at 2000 × g for 5 min at room temperature, and the plasma was discarded. The RBCs were washed twice with PBS and then resuspended in 0.9% normal saline solution at a volume equivalent to that of the original plasma. Approximately 0.8% v/v RBC suspension was incubated with the peptides at 200 µM (100 µL final volume) in a U‐bottom 96‐well plate at room temperature for 1 h with agitation. 1% v/v Triton X‐100 was applied as a positive control. The untreated condition served as the blank control. After 1 h incubation, the supernatants were collected by centrifuging at 2000 × g for 5 min at room temperature. The absorbance of hemoglobin in the supernatant was measured at 415 nm. The hemolysis percentage was calculated as follows: (2) % Hemolysis = [sample absorbance−blank control/positive control−blank control] × 100

[7] = system: A549 lung cancer cells; assay: Confocal microscopy: cell internalization and membrane integrity (PI); assay type: cell-based, human; details: A549, peptide 200 µM 24 h, Triton X‐100 0.5% v/v 10 min, PI staining
Description: All cells were then incubated with PI (1:2000) and Hoechst 33342 (1:5000) in the culture medium at 37 °C in 5% CO2 for 15 min. The cells were washed with PBS twice before being fixed with 4% paraformaldehyde (PFA) in PBS. The fixed cells were washed twice with PBS and mounted in 20% glycerol in PBS. […] Thereafter, the cells were stained with PI for 15 min at room temperature, washed with PBS, and then mounted with 20% glycerol in PBS. Internalization was visualized by confocal fluorescence microscopy (Nikon Instruments, Inc., Melville, NY, USA).

| Compound | anticancer effect (in words) [1] | anticancer effect (in words) [2] | anticancer effect (in words) [3] | anticancer effect (in words) [4] | anticancer effect (in words) [5] | percent hemolysis [6] | membrane integrity / propidium iodide internalization (in words) [7] | hemolytic effect (in words) ([6]; human RBCs, Triton X‐100 1% v/v) |
| --- | --- | --- | --- | --- | --- | --- | --- | --- |
| CC[C@H](C)[C@H](NC(=O)CNC(=O)[C@@H](NC(=O)[C@H](CC(C)C)NC(=O)[C@H](Cc1ccccc1)NC(=O)[C@H](CC(C)C)NC(=O)[C@@H]1CCCN1C(=O)[C@@H](NC(=O)[C@H](Cc1ccccc1)NC(=O)[C@H](Cc1ccccc1)NC(=O)[C@@H](N)CCCNC(=N)N)C(C)C)C(C)C)C(=O)N[C@@H](CC(C)C)C(=O)N[C@@H](Cc1ccccc1)C(=O)N1CCC[C@H]1C(=O)N[C@@H](C)C(=O)N[C@H](C(=O)N[C@@H](CC(C)C)C(=O)N[C@@H](C)C(=O)N[C@@H](CCCCN)C(=O)N[C@@H](CCC(N)=O)C(=O)N[C@@H](Cc1ccccc1)C(=O)N[C@H](C(=O)N[C@@H](CCCCN)C(=O)O)[C@@H](C)O)[C@@H](C)CC [ALA‐A1] (H-RFFVPLFLVGILFPAILAKQFTK-OH) | did not exhibit a substantial anticancer effect | did not exhibit a substantial anticancer effect | did not exhibit a substantial anticancer effect | did not exhibit a substantial anticancer effect | did not exhibit a substantial anticancer effect | 5.6% ± 0.6% |  |  |
| CC[C@H](C)[C@H](NC(=O)CNC(=O)[C@@H](NC(=O)[C@H](CC(C)C)NC(=O)[C@H](Cc1ccccc1)NC(=O)[C@H](CC(C)C)NC(=O)[C@@H]1CCCN1C(=O)[C@@H](NC(=O)[C@H](Cc1ccccc1)NC(=O)[C@H](Cc1ccccc1)NC(=O)[C@@H](N)CCCNC(=N)N)C(C)C)C(C)C)C(=O)N[C@@H](CC(C)C)C(=O)N[C@@H](Cc1ccccc1)C(=O)N1CCC[C@H]1C(=O)N[C@@H](C)C(=O)N[C@H](C(=O)N[C@@H](CC(C)C)C(=O)N[C@@H](C)C(=O)N[C@@H](CCCCN)C(=O)N[C@@H](CCC(N)=O)C(=O)N[C@@H](Cc1ccccc1)C(=O)N[C@H](C(=O)N[C@@H](CCCCN)C(=O)N[C@@H](CS)C(=O)O)[C@@H](C)O)[C@@H](C)CC [ALA‐A3] (H-RFFVPLFLVGILFPAILAKQFTKC-OH) | did not exhibit a substantial anticancer effect | did not exhibit a substantial anticancer effect | did not exhibit a substantial anticancer effect | did not exhibit a substantial anticancer effect | did not exhibit a substantial anticancer effect | 1.3% ± 1.2% |  |  |
| CC[C@H](C)[C@H](NC(=O)[C@H](CCC(N)=O)NC(=O)[C@H](Cc1ccccc1)NC(=O)[C@@H](N)CC(C)C)C(=O)N[C@@H](CO)C(=O)N[C@@H](CC(N)=O)C(=O)N[C@@H](CCCCN)C(=O)N[C@@H](CC(C)C)C(=O)N[C@@H](Cc1c[nH]c2ccccc12)C(=O)N[C@@H](CS)C(=O)N[C@@H](CCCCN)C(=O)N[C@@H](CO)C(=O)N[C@@H](CO)C(=O)N[C@@H](CCC(N)=O)C(=O)N[C@H](C(=O)N1CCC[C@H]1C(=O)N[C@@H](CCC(N)=O)C(=O)N[C@@H](CO)C(=O)N[C@@H](CCCNC(=N)N)C(=O)N[C@@H](CC(N)=O)C(=O)O)C(C)C [ALA‐A4] (H-LFQISNKLWCKSSQVPQSRN-OH) | did not exhibit a substantial anticancer effect | did not exhibit a substantial anticancer effect | did not exhibit a substantial anticancer effect | did not exhibit a substantial anticancer effect | did not exhibit a substantial anticancer effect | 0.7% ± 0.6% |  |  |
| CC[C@H](C)[C@H](NC(=O)[C@H](CO)NC(=O)[C@@H]1CCCN1C(=O)[C@H](C)NC(=O)CNC(=O)[C@H](CC(C)C)NC(=O)[C@H](CCCCN)NC(=O)[C@H](CCCCN)NC(=O)[C@H](CCSC)NC(=O)[C@H](CCCNC(=N)N)NC(=O)[C@H](Cc1c[nH]c2ccccc12)NC(=O)[C@H](CCC(N)=O)NC(=O)[C@H](Cc1c[nH]c2ccccc12)NC(=O)[C@H](CCCNC(=N)N)NC(=O)[C@H](CCCNC(=N)N)NC(=O)[C@H](CS)NC(=O)[C@H](CCCCN)NC(=O)[C@@H](N)Cc1ccccc1)C(=O)N[C@H](C(=O)N[C@@H](CS)C(=O)N[C@H](C(=O)N[C@@H](CCCNC(=N)N)C(=O)O)C(C)C)[C@@H](C)O [BMP‐S6, reference compound] |  | exhibited cancer cytotoxicity |  |  |  |  |  |  |
| Triton X‐100 [reference compound] |  |  |  |  |  |  | is internalized | completely lysed |
